This is an account of results in patent publication US12116387B2, “Antimicrobial peptides” (priority 2021, dated 2024).

Read-outs that look alike come from different tables or passages of the source. Ends that are not written are not given here.

For data set [1], the system named is human red blood cells (hRBCs). As to the kind of experiment: Cytotoxicity / hemolysis against human red blood cells. In kind it is cell-based.
Procedure: Once the mechanisms by which the peptide targeted bacterial cells was elucidawted, the effect of the pentapeptide motif insertion on cytotoxicity against mammalian cells was evaluated.
In data set [2] the test system is murine fibroblasts (L929). As to the kind of experiment: Cytotoxicity against L929 fibroblasts (MTT). In kind it is cell-based. As for the experimental part:
Mammalian cells toxicity assays. L929 mice fibroblasts (Rio de Janeiro Cell Bank) and SPCs were seeded in 96-well microtiter plates in a concentration of 1.0×10^5 cells per well, in DMEM medium, supplemented with different concentrations of tested peptides (1-600 μM). After 48 h incubation, a thiazolyl blue tetrazolium bromide (MTT) protocol was performed. Briefly, 60% of the medium was removed, and 10 μL of MTT (5 mg mL^−1) (Sigma, USA) solution was added to each well and the plate was incubated for 4 h, in 5% CO2, at 37° C. The blue formazan product generated was dissolved by the addition of 100 μL of 100% DMSO (Mallinckrodt, Germany) per well. Plates were then gently swirled for 5 min, at room temperature, to dissolve the precipitate. The absorbance was monitored at 575 nm using a microplate spectrophotometer (Bio-Tek, USA). Cytotoxicity was determined as a percentage of the maximum value after subtracting the background. The results were expressed as the percentage of each sample compared to the negative control (PBS buffer, pH 7.4) and cell culture was incubated in a lysis buffer (10 mM Tris, pH 7.4, 1 mM ethylenediamine tetraacetic acid (EDTA), and 0.1% Triton X-100).

The test system of data set [3] is murine macrophages monocytes (RAW 264.7). Kind of data set: Cytotoxicity against RAW 264.7 cells (MTT). The format is cell-based.
The next data set has as its system P. aeruginosa. As to the kind of experiment: Skin scarification (abscess) infection mouse model. In kind it is in vivo. The conditions noted are these: single dose 16 μmol L^−1. From the text:
Despite these therapeutic properties, mast-MO retained some cytotoxicity towards human cells at concentrations immediately above its antimicrobial and immunomodulatory activities hindering its use as a potential therapy in humans. FIG. 6B pertains to design of mast-MO derivatives through permutation of its FLPII motif. FIG. 6C depicts cytotoxic activity of mast-MO and its permutation variants against human embryonic kidney cells (i.e., HEK293). FIG. 6D provides a schematic of the experimental design. Briefly, the back of mice was shaved, and an abrasion was generated to damage the stratum corneum and the upper layer of the epidermis. Subsequently, an aliquot of […] containing 5×10^7 CFU/20 μL of P. aeruginosa in PBS was inoculated over each defined area. One day post-infection, peptides (16 μmol L^−1) were administered to the infected area. […] Six animals per group were euthanized and the area of scarified skin was excised two days post-infection, homogenized using a bead beater for 20 min (25 Hz), and serially diluted for CFU quantification (statistical significance was determined using two-way ANOVA followed by Dunnett's test, ***p<0.001). […]
Skin abscess infection mouse model. […] Animals were euthanized and the area of scarified skin was excised two- and four-days post-infection, homogenized using a bead beater for 20 minutes (25 Hz), and serially diluted for CFU quantification. […]

In data set [4] the test system is mouse red blood cells (mRBCs). As to the kind of experiment: Hemolysis of mouse red blood cells. In kind it is cell-based. The conditions noted are these: 0.5 to 200 μmol L^−1. How it is done:
Hemolysis assays. Hemolytic activity of peptides was determined by using fresh mouse red blood cells (mRBCs), by measuring the peptide-induced changes of the optical density (OD) at 540 nm (Victor X, Perkin-Elmer, Germany), 100% lysis was determined by analysing the supernatant of erythrocytes that had been incubated with Triton X-100 (1%).

The test system of the next data set is mice. How it is done: Therefore, the anti-infective activity of mast-MO was then tested in pre-clinical mouse models. First, the toxicity of a single dose of either mast-L or mast-MO administered peritoneally to mice was assessed in order to determine the range of concentrations to be used in subsequent animal experiments. The hemolytic activity of mast-MO (up to 200 μmoL^−1) against murine red blood cells (Table 6) was also tested prior to conducting animal experiments.
Systemic bacterial infection mouse model. Acute toxicity assay was performed based on the work of Navon-Venezia and co-workers (46). The experiment was performed by intraperitoneal (i.p.) injection of the tested peptides to groups of 10 C57BL/6 mice. Each mouse was injected with a 0.5 mL solution of freshly prepared of peptides in PBS. The doses of peptide administered per mouse were 0, 10, 30, 50, 70 and 90 mg Kg^−1 of body weight. Animals were directly inspected for adverse effects for 6 h, and mortality was monitored for 7 days thereafter. Differences between groups were analysed using the Fisher exact test (differences were considered to be statistically significant when the P value was <0.05). Briefly, E. coli ATCC8739 and E. coli 1812446 or S. aureus ATCC 29213 and S. aureus (MRSA) ATCC33591 were plated on tryptic soy agar plus 5% sheep blood (blood agar, Himedia, India) from a frozen stock. Following 24 h of incubation of the agar plate, three isolated colonies were transferred to 1 mL of BHI. The broth culture was incubated overnight (12-16 h) at 37° C. with shaking. […] Mice were challenged with either strain of E. coli ATCC8739 and E. coli 1812446 or S. aureus ATC29213 and S. aureus (MRSA) ATCC33591 in a final volume of 200 μL of PBS by intraperitoneal injection (i.p.). The day of challenge was designated as day 1 of the experiment. Three hours after bacterial injection, mice (n=5) were treated, intraperitoneally, with different concentrations of peptides (1, 5 or 10 mg Kg^−1), LL-37, gentamicin and 10 mg Kg^−1 of imipenem or PBS for 8 days. For bacterial load evaluation, 5 mice per group were used. Animals were humanely killed 24 h after bacterial administration. To detect bacterial colonization, the peritoneal lavage samples were collected under sterile conditions. The peritoneal lavage was obtained by washing the cavity with 5 mL of sterile PBS. Samples were diluted serially, and 100 μL of each dilution was spread in duplicate on appropriate agar plates for the count of developed colonies. Cytokine levels (i.e., IFN-γ, IL-6, IL−10, IL−12p70 and TNF-α) in the peritoneal lavage of the mice both in the absence and presence of peptide treatment were quantified by ELISA (Peprotech, USA) according to the manufacturer's instructions.

Data set [5] has as its system human embryonic kidney (HEK293) cells. Kind of data set: Cytotoxicity against HEK293 cells. In kind it is cell-based. From the text: The FLPII motif was chosen for the permutations to preserve the natural antimicrobial activity of mast-L and also conserve the hydrophobic content inserted in the N-terminal extremity for the initial design of mast-MO. Next, we assessed the antimicrobial (FIG. 10) and cytotoxic activities of the mast-MO analog library against HEK293 cells (FIG. 6C). These specific cell line was chosen as it derives from human embryonic kidney cells and potential antimicrobial (i.e., AMPs, antibiotics) toxicity affects the kidneys, which are responsible for clearing such molecules (34). Also measured was whether the peptides aggregated at the highest concentration tested (128 μmoL^−1) (Table 7) since the motif inserted is composed of residues with aliphatic or aromatic side chain groups that may be prone to aggregation when in proximity within the primary peptide sequence, thus altering biological activity. Minor changes to the first five residues inserted in the mast-MO primary sequence led to a pronounced decrease in cytotoxic activity (2.5 to 5-fold) compared to mast-MO (FIG. 6C).

In data set [6] the test system is E. coli and S. aureus strains. Kind of data set: Systemic infection experiments, summary over all strains. The note with it: 10 mg Kg^−1.
Procedure: To determine the anti-infective activity of mast-MO in a pre-clinical mouse model, the ability of the peptide to kill pathogenic and drug-resistant E. coli and S. aureus strains was tested in a systemic sepsis infection mouse model (FIG. 5). The minimal bacterial load resulting in a lethal dose (LD100) 24 h post-intraperitoneal injection was first determined. […] Mice were infected with the LD100 of bacteria and treated 3 h post-infection with either mast-L (1 and 5 mg Kg^−1) or mast-MO (1, 5 and 10 mg Kg^−1), which were also administered intraperitoneally.
Systemic bacterial infection mouse model. […] The experiment was performed by intraperitoneal (i.p.) injection of the tested peptides to groups of 10 C57BL/6 mice. Each mouse was injected with a 0.5 mL solution of freshly prepared of peptides in PBS. The doses of peptide administered per mouse were 0, 10, 30, 50, 70 and 90 mg Kg^−1 of body weight. Animals were directly inspected for adverse effects for 6 h, and mortality was monitored for 7 days thereafter. Differences between groups were analysed using the Fisher exact test (differences were considered to be statistically significant when the P value was <0.05). Briefly, E. coli ATCC8739 and E. coli 1812446 or S. aureus ATCC 29213 and S. aureus (MRSA) ATCC33591 were plated on tryptic soy agar plus 5% sheep blood (blood agar, Himedia, India) from a frozen stock. Following 24 h of incubation of the agar plate, three isolated colonies were transferred to 1 mL of BHI. The broth culture was incubated overnight (12-16 h) at 37° C. with shaking. […] Mice were challenged with either strain of E. coli ATCC8739 and E. coli 1812446 or S. aureus ATC29213 and S. aureus (MRSA) ATCC33591 in a final volume of 200 μL of PBS by intraperitoneal injection (i.p.). The day of challenge was designated as day 1 of the experiment. Three hours after bacterial injection, mice (n=5) were treated, intraperitoneally, with different concentrations of peptides (1, 5 or 10 mg Kg^−1), LL-37, gentamicin and 10 mg Kg^−1 of imipenem or PBS for 8 days. For bacterial load evaluation, 5 mice per group were used. […]
The mark [7] stands for this setting: Dose 90 mg Kg^−1, five mice per group.

On to gentamicin, for which the “Cytotoxic activity, Peptide Concentration” value (“Cytotoxic activity” below) in data set [1] (hRBCs), in data set [2] (L929) and in data set [3] (RAW 264.7 (Table 2)) was more than 400 µmol/L in each case.

Turning to `CC[C@H](C)[C@H](N)C(=O)N[C@@H](Cc1ccccc1)C(=O)N[C@@H](CC(C)C)C(=O)N1CCC[C@H]1C(=O)N[C@H](C(=O)N[C@H](C(=O)N[C@@H](CC(N)=O)C(=O)N[C@@H](CC(C)C)C(=O)N[C@@H](CCCCN)C(=O)N[C@@H](C)C(=O)N[C@@H](CC(C)C)C(=O)N[C@@H](C)C(=O)N[C@@H](C)C(=O)N[C@@H](CC(C)C)C(=O)N[C@@H](C)C(=O)N[C@@H](CCCCN)C(=O)N[C@@H](CCCCN)C(=O)N[C@H](C(=O)N[C@@H](CC(C)C)C(N)=O)[C@@H](C)CC)[C@@H](C)CC)[C@@H](C)CC` [Analog 15, IFLPIINLKALAALAKKIL], in the data set on P. aeruginosa, the “Side effects or adverse toxicity” value is reported as “did not cause any side effects or adverse toxicity”.

Consider FLPII [FLPII motif, FLPII], for which, in data set [3] (RAW 264.7, 24 h, 0.5 to 200 μmol L^−1, MTT (Table 6)), the “Cytotoxic activity” value is more than 200 µmol/L. Also, in data set [4], the “Hemolytic activity, Peptide Concentration” value was more than 200 µmol/L.

On to `C[C@@H](O)[C@H]1C(=O)N2C(C(=O)O)=C(SCCN=CN)C[C@H]12` [Imipenem, imipenem], for which the “Cytotoxic activity” value in data set [1] (human), in data set [2] (mouse) and in data set [3] (mouse) was more than 400 µmol/L in each case. Further, the “Gross toxicity, number of mice (TL)” value in the data set with mice (Dose 50 mg Kg^−1, five mice per group) was 2 (TL-1); with mice (setting [7]) it was 3 (TL-2).

With `CC[C@H](C)[C@H](NC(=O)[C@H](CCCCN)NC(=O)[C@H](CCCCN)NC(=O)[C@H](C)NC(=O)[C@H](CC(C)C)NC(=O)[C@H](C)NC(=O)[C@H](C)NC(=O)[C@H](CC(C)C)NC(=O)[C@H](C)NC(=O)[C@H](CCCCN)NC(=O)[C@H](CC(C)C)NC(=O)[C@H](CC(N)=O)NC(=O)[C@@H](NC(=O)[C@H](CC(C)C)NC(=O)[C@@H](NC(=O)[C@@H](NC(=O)[C@@H]1CCCN1C(=O)[C@@H](N)Cc1ccccc1)[C@@H](C)CC)[C@@H](C)CC)[C@@H](C)CC)C(=O)N[C@@H](CC(C)C)C(N)=O` [Analog 49, FPIILINLKALAALAKKIL], in the data set on P. aeruginosa, the “Side effects or adverse toxicity” value is reported as “did not cause any side effects or adverse toxicity”.

For the compound `CC[C@H](C)[C@H](NC(=O)[C@H](CCCCN)NC(=O)[C@H](CCCCN)NC(=O)[C@H](C)NC(=O)[C@H](CC(C)C)NC(=O)[C@H](C)NC(=O)[C@H](C)NC(=O)[C@H](CC(C)C)NC(=O)[C@H](C)NC(=O)[C@H](CCCCN)NC(=O)[C@H](CC(C)C)NC(=O)[C@H](CC(N)=O)NC(=O)[C@@H](NC(=O)[C@@H](NC(=O)[C@@H](NC(=O)[C@@H]1CCCN1C(=O)[C@H](CC(C)C)NC(=O)[C@@H](N)Cc1ccccc1)[C@@H](C)CC)[C@@H](C)CC)[C@@H](C)CC)C(=O)N[C@@H](CC(C)C)C(N)=O` [Mast-MO, FLPIIINLKALAALAKKIL], the “Hemolytic activity in human red blood cell assays” value in data set [1] (concentration range tested 1-400 μmoL^−1) was “did not present hemolytic activity”. Moreover, the “Cytotoxic activity” value in data set [1] (hRBCs) was more than 400 µmol/L; in data set [5] (HEK293), 25 µmol/L; in data set [2] (L929), more than 400 µmol/L; in data set [3] (RAW 264.7 (Table 2)), more than 400 µmol/L. Further, the “Concentration toxic against HEK293” value in data set [5] is 25 µmol⁻¹. For the same compound, the “Cytotoxicity towards murine fibroblasts (L929 cells), in words” value in data set [2] is “not cytotoxic”. For the same compound, the “Cytotoxicity towards murine macrophages (RAW 264.7 cells), in words” value in data set [3] was “not cytotoxic”. For the same compound, the “Gross toxicity, number of mice (TL)” value in the data set on mice (setting [7]) is given as 2 (TL-1). In the data set with mice (single dose, peritoneally), the “Toxicity in preliminary mouse experiments, in words” value is recorded as “lacked toxicity”. In addition, the “Toxicity when injected systemically in the infection model” value in data set [6] was “did not present toxicity”.
